# Test results as given in patent publication EP1210336B1, “SUBSTITUTED BENZIMIDAZOLES AS NON-NUCLEOSIDE INHIBITORS OF REVERSE TRANSCRIPTASE” (THE UNITED STATES OF AMERICA, as represented by the …, priority 1999, dated 2001).
# Like-named read-outs stand apart in the source and are kept apart here.
# What was measured:
# [1] = target: T1, HIV-1 WT RT (Human immunodeficiency virus type 1 group M subtype B, UniProt P03366); test: biochemical; conditions: for inhibition at 10 µM: read-out: %inhibn (10µM)
# T1 construct: purified RT protein (0.015 mg/mL) was incubated in a 100 µL reaction mixture
# [2] = test system: HIV-1 isolate 4xAZT; test: Cytopathic cell killing assay, cross-resistance profile, infected MT-4 cells; type: cell-based
# How it was run: (§1)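 Cells seeded at 5 x 10^3 per well and infected with pre-titered HIV at MOI giving full killing by day 6 (e.g., 0.01-0.05). Compounds tested in triplicate serial half-log dilutions. Viability measured after six days at 37°C by XTT formazan at 450 nm; TI50 = fold-difference between EC50 and IC50.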
# [3] = test system: HIV-1 variant A98G; test: as above; type: cell-based
# How it was run: as §1
# [4] = test system: HIV-1 variant K101E; test: as above; type: cell-based
# How it was run: as §1
# [5] = test system: HIV-1 variant K103N; test: as above; type: cell-based; conditions: for EC50: isolate K103N
# How it was run: as §1
# [6] = test system: HIV-1 variant L100I; test: as above; type: cell-based
# How it was run: as §1
# [7] = test system: HIV-1 variant L74V; test: as above; type: cell-based
# How it was run: as §1
# [8] = test system: HIV-1 variant V106A; test: as above; type: cell-based
# How it was run: as §1
# [9] = test system: HIV-1 variant V108I; test: as above; type: cell-based
# How it was run: as §1
# [10] = test system: HIV-1 variant Y181C; test: as above; type: cell-based; conditions: isolate Y181C
# How it was run: as §1
# [11] = test system: HIV-1 variant Y188C; test: as above; type: cell-based
# How it was run: as §1
# [12] = test system: HIV-1 isolate 4xAZT/L100I; test: as above; type: cell-based
# How it was run: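 Cytopathic protection assay: cells at 5 x 10^3/well infected with pre-titered HIV isolate (e.g., MOI 0.01-0.05), compound serial half-log dilutions in triplicate.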
# [13] = Table 1, WT RT, 10 µM drug concentration
# [14] = Human immunodeficiency virus 1, MT4, Table 4, isolate 4xAZT
# [15] = Human immunodeficiency virus 1, MT4, Table 8, isolate 4XAZT
# [16] = Human immunodeficiency virus 1, MT4, Table 4, isolate A98G
# [17] = Human immunodeficiency virus 1, MT4, Table 8, isolate A9SG
# [18] = Human immunodeficiency virus 1, MT4, Table 9, isolate A98G
# [19] = Human immunodeficiency virus 1, MT4, Table 4, isolate K101E
# [20] = Human immunodeficiency virus 1, MT4, Table 8, isolate K101E
# [21] = Human immunodeficiency virus 1, MT4, Table 9, isolate KIOIE
# [22] = Human immunodeficiency virus 1, MT4, Table 4
# [23] = Human immunodeficiency virus 1, MT4, Table 8
# [24] = Human immunodeficiency virus 1, MT4, Table 9
# [25] = Human immunodeficiency virus 1, MT4, Table 4, isolate L1001
# [26] = Human immunodeficiency virus 1, MT4, Table 8, isolate 1.1001
# [27] = Human immunodeficiency virus 1, MT4, Table 9, isolate L1001
# [28] = Human immunodeficiency virus 1, MT4, Table 4, isolate L74V
# [29] = Human immunodeficiency virus 1, MT4, Table 8, isolate 1.74V
# [30] = Human immunodeficiency virus 1, MT4, Table 9, isolate 1.74 V
# [31] = Human immunodeficiency virus 1, MT4, Table 4, isolate V106A
# [32] = Human immunodeficiency virus 1, MT4, Table 8, isolate V 106A
# [33] = Human immunodeficiency virus 1, MT4, Table 9, isolate V106A
# [34] = Human immunodeficiency virus 1, MT4, Table 4, isolate V108I
# [35] = Human immunodeficiency virus 1, MT4, Table 8, isolate V1081
# [36] = Human immunodeficiency virus 1, MT4, Table 9, isolate V1081
# [37] = Human immunodeficiency virus 1, MT4, Table 4, isolate Y188C
# [38] = Human immunodeficiency virus 1, MT4, Table 8, isolate Y 188C
# [39] = Human immunodeficiency virus 1, MT4, Table 9, isolate Y188C
# [40] = Human immunodeficiency virus 1, MT4, Table 4, isolate 4xAZT/L.1001
# [41] = Human immunodeficiency virus 1, MT4, Table 8, isolate 4XA7T L 1001
# [42] = Human immunodeficiency virus 1, MT4, Table 9, isolate 4XAZT /L1001
# [43] = Human immunodeficiency virus 1, MT4, Table 10 (values in µM)
compound,measurement,setting,value
"Fc1cccc(F)c1C1SCc2nc3ccccc3n21 (centres unmarked) [TZB, 1-(2,6-difluorophenyl)-1H,3H-thiazolo[3,4-a]benzimidazole, reference compound]",IC50,[1],0.5 µM
same,inhibition at 10 µM,[1]; [13],84%
same,EC50,[2]; [14],1.5 µM
same,EC50,[2]; [15],1.1 µM
same,EC50,[3]; [16],17.7 µM
same,EC50,[3]; [17],10 µM
same,EC50,[3]; [18],10 µM
same,EC50,[4]; [19],> 20 µM
same,EC50,[4]; [20],> 10 µM
same,EC50,[4]; [21],> 10 µM
same,EC50,[5]; [22],> 20 µM
same,EC50,[5]; [23],> 10 µM
same,EC50,[5]; [24],> 20 µM
same,activity against the K103N mutation / isolate,"[5]; result in words, cytopathic cell killing assay",ineffective
same,EC50,[6]; [25],12.2 µM
same,EC50,[6]; [26],6.6 µM
same,EC50,[6]; [27],6.6 µM
same,EC50,[7]; [28],0.7 µM
same,EC50,[7]; [29],0.8 µM
same,EC50,[7]; [30],0.5 µM
same,EC50,[8]; [31],> 20 µM
same,EC50,[8]; [32],5.7 µM
same,EC50,[8]; [33],> 10 µM
same,EC50,[9]; [34],9.7 µM
same,EC50,[9]; [35],3.9 µM
same,EC50,[9]; [36],5.7 µM
same,EC50,[10]; [22],16.3 µM
same,EC50,[10]; [24],> 10 µM
same,EC50,[11]; [37],> 20 µM
same,EC50,[11]; [38],> 20 µM
same,EC50,[11]; [39],> 20 µM
same,EC50,[12]; [40],1.7 µM
same,EC50,[12]; [41],1.1 µM
same,EC50,[12]; [42],1.1 µM
"Cc1cccc2c1nc(-c1c(F)cccc1F)n2Cc1c(F)cccc1F [compound 33, 1-(2,6-difluorobenzyl)-2-(2,6-difluorophenyl)-4-methylbenzimidazole]",IC50,"[1]; HIV-1 WT RT, read-out: IC50",0.2 µM
same,inhibition at 10 µM,[1]; [13],92%
same,IC50,"[1]; Table 1, quantity of drug required to reduce WT RT enzyme activity by 50%, read-out: IC50",0.2 µM
same,%inhibn (10µM),"[1]; Table 2, WT RT, 10 µM drug concentration",92%
same,IC50,"[1]; Table 7, HIV-1 WT RT, read-out: IC50",0.2 µM
same,inhibition at 1 µM,"[1]; Table 7, WT HIV-1 RT, 1 µM drug, read-out: %inhibn (1µM)",71%
same,IC50,"[1]; Table 11, WT RT, read-out: IC50",0.2 µM
same,IC50,"[1]; WT RT, read-out: IC50",0.2 µM
same,EC50,[2]; [14],0.1 µM
same,EC50,[2]; [15],0.1 µM
same,EC50,"[2]; Human immunodeficiency virus 1, MT4, Table 9, isolate 4XAZT",0.1 µM
same,EC50,[3]; [16],1.4 µM
same,EC50,[3]; [17],27 µM
same,EC50,[3]; [18],2.7 µM
same,EC50,[4]; [19],16.7 µM
same,EC50,[4]; [20],> 10 µM
same,EC50,[4]; [21],> 10 µM
same,EC50,"[4]; Human immunodeficiency virus 1, MT4, Table 10 (values in µM), isolate K101E",16.7 µM
same,EC50,[5]; [22],8.1 µM
same,EC50,[5]; [23],> 20 µM
same,EC50,[5]; [24],> 20 µM
same,EC50,[5]; [43],8.1 µM
same,EC50,[6]; [25],0.3 µM
same,EC50,[6]; [26],0.3 µM
same,EC50,[6]; [27],0.3 µM
same,EC50,"[6]; Human immunodeficiency virus 1, MT4, Table 10 (values in µM), isolate L1001",0.3 µM
same,EC50,[7]; [28],0.1 µM
same,EC50,[7]; [29],0.3 µM
same,EC50,[7]; [30],0.3 µM
same,EC50,[8]; [31],20 µM
same,EC50,[8]; [32],> 10 µM
same,EC50,[8]; [33],> 10 µM
same,EC50,[9]; [34],2.8 µM
same,EC50,[9]; [35],2.8 µM
same,EC50,[9]; [36],2.8 µM
same,EC50,"[9]; Human immunodeficiency virus 1, MT4, Table 10 (values in µM), isolate V108l",2.8 µM
same,EC50,[10]; [22],6 µM
same,EC50,[10]; [24],4.3 µM
same,EC50,[10]; [43],6 µM
same,EC50,[11]; [37],2.3 µM
same,EC50,[11]; [38],3 µM
same,EC50,[11]; [39],3 µM
same,EC50,"[11]; Human immunodeficiency virus 1, MT4, Table 10 (values in µM), isolate Y188C",2.3 µM
same,EC50,[12]; [40],0.2 µM
same,EC50,[12]; [41],0.2 µM
same,EC50,[12]; [42],0.2 µM
